The values that follow come from paper PMC8042770, “Odorant Receptors for Detecting Flowering Plant Cues Are Functionally Conserved across Moths and Butterflies” (Molecular Biology and Evolution, 2020).

One test addresses HarmOR35 (Helicoverpa armigera, UniProt A0A7T3N1A8). The test is described as follows: Xenopus oocyte two-electrode voltage clamp, HarmOR35 + Orco. It counts as cell-based. The method, then: (§1) In order to expand our analysis on the response properties of HarmORs, we conducted dose–response analyses for the 28 functional HarmORs. […] Six HarmORs (OR3, 22, 48, 50, 56, and 66) could not be activated by any ligand at 10^−5 M. For the other 22 HarmORs, dose–response curves were generated and EC50 values of their major ligands were calculated (fig. 2A and supplementary table S2, Supplementary Material online). The HarmOR repertoire was highly efficient in terpene detection, since the lowest EC50 values were obtained for such compounds. Many of these terpenes have been proposed to be defensive chemicals of plants. […] DMNT is also one of the oviposition deterring compounds found in larval frass of some Lepidoptera species such as S. littoralis ([Anderson et al. 1993]).
(§2) Functional characterization of individual ORs was performed by heterologous expression in Xenopus oocytes combined with a two-electrode voltage-clamp system ([Wang et al. 2010]). […] After incubation in nutrient solution at 18 °C for 3–5 days, the response profile of each oocyte to multiple plant odorants was recorded via a two-electrode voltage clamp (OC-725C oocyte clamp, Warner Instruments, Hamden, CT) at a holding potential of −80 mV. Data were acquired by using a Digidata 1440 A and were analyzed by pCLAMP 10.2 software (Axon Instruments Inc., Union City, CA). […]
On the technique in general: Two-electrode voltage clamp holds a large cell at a set potential and records current.

A further test has as its target HarmOR63 (Helicoverpa armigera, UniProt A0A7T3N0P9). The test is described as follows: Xenopus oocyte two-electrode voltage clamp, HarmOR63 + Orco. The following applies: dose response in oocytes, unit M. It counts as cell-based. The method, then: as §1, §2
The target in a further test is HarmOR26 (Helicoverpa armigera, UniProt A0A075T633). The test is described as follows: Xenopus oocyte two-electrode voltage clamp, HarmOR26 + Orco. It counts as cell-based. The following applies: dose response in oocytes, unit M printed in b12 only. The method, then:
as §1, §2

The target of the next test is T1, HarmOR40 (Helicoverpa armigera, UniProt A0A7T3KBF4).
T1 sequence (A0A7T3KBF4 1-401): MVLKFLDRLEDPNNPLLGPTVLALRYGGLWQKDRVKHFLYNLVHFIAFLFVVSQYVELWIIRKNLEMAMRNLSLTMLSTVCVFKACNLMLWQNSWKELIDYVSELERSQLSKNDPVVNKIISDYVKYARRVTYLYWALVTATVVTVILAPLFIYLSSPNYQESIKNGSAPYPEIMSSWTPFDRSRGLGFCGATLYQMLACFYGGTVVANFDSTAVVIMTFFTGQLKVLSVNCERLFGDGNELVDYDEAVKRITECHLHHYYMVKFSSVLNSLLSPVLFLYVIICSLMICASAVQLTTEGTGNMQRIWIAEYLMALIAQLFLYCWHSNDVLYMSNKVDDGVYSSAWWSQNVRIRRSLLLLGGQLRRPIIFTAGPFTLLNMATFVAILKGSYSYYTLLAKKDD
The test is described as follows: Xenopus oocyte two-electrode voltage clamp, HarmOR40 + Orco. It counts as cell-based. The conditions noted are these: HarmOR40; dose response in oocytes; unit M printed in text only; read-out: EC50. As for the experimental part: as §1
(§3) Functional characterization of individual ORs was performed by heterologous expression in Xenopus oocytes combined with a two-electrode voltage-clamp system ([Wang et al. 2010]). Briefly, the full-length gene of each OR and Orco were subcloned into the eukaryotic expression vector pT7TS. cRNAs were generated from linearized expression vectors using the mMESSAGE mMACHINE T7 kit (Ambion, Austin, TX). Then, the cRNA mixture of ORx and Orco (27.6 ng each) was injected (Nanoliter 2010, WPI Inc., Sarasota, FL) into oocytes (stage V–VII). The respective Orcos of different species were used for functional studies of OR42 orthologs except for the four butterfly species (V. tameamea, P. xuthus, D. plexippus, and P. rapae), in which we used the Orco from P. xuthus. After incubation in nutrient solution at 18 °C for 3–5 days, the response profile of each oocyte to multiple plant odorants was recorded via a two-electrode voltage clamp (OC-725C oocyte clamp, Warner Instruments, Hamden, CT) at a holding potential of −80 mV. Data were acquired by using a Digidata 1440 A and were analyzed by pCLAMP 10.2 software (Axon Instruments Inc., Union City, CA).
(§4) Stock solutions of each odorant were prepared at 1 M using DMSO as a solvent, and each odorant was diluted in 1× Ringer’s solution to the indicated concentrations for electrophysiological recording. For functional screening of each HarmOR, a panel of 67 odorants belonging to three types of chemical classes: terpenes, aromatics, and aliphatics (short-chain fatty acid) were used (supplementary table S1, Supplementary Material online). For functional studies of OR42 orthologs from different species, six odorants including PAA, benzaldehyde, (E)-2-hexen-1-al, cinnamaldehyde, 2-phenylethanol, and heptanal were used.

For another test, the target named is HarmOR55 (Helicoverpa armigera, UniProt A0A7T3N2G6). In words: Xenopus oocyte two-electrode voltage clamp, HarmOR55 + Orco. It counts as cell-based. The conditions noted are these: dose response in oocytes, unit M. As for the experimental part: as §1, §2
The next test concerns HarmOR repertoire. In words: Responses of the 28 functional HarmORs across odorant doses (PCA of oocyte currents). It counts as cell-based, Helicoverpa armigera. The following applies: odorant 10^−7 M.
Source text: Vectors quantifying the responses of the 28 ORs to each odorant were projected onto a 3D landscape. This 3D representation captured 78.34% (10^−4 M), 65.11% (10^−5 M), 68.89% (10^−6 M), and 84.52% (10^−7 M) of the variation in the original 28D data set across different odorant concentrations. […] In addition, the capacity of the H. armigera odor space was highly dependent on odorant concentration. As the concentrations of odorants decreased, their positions in the odor space converged, with the ability to discriminate different odorants diminishing.
as §3, §4
Graphs and data statistics of OR response spectra, dose responses, EAG, and behavioral experiments were generated by Prism 7 (GraphPad Software, La Jolla, CA). A heat map was generated in Excel 2010 (Microsoft Corporation, WA). […] For tuning breadth analysis, the kurtosis values (K) were calculated by SPSS 22 (SPSS Inc., Chicago, IL) and were used to define the tuning spectra width, where smaller K values represent broader tuning spectra (fig. 1B). […]

In a further test the target is HarmOR7 (Helicoverpa armigera, UniProt A0A7T3KAD7). The test is described as follows: Xenopus oocyte two-electrode voltage clamp, HarmOR7 + Orco. It counts as cell-based. As for the experimental part:
as §1, §2

A further test has as its target T2, HarmOR60 (Helicoverpa armigera, UniProt A0A7T3N1B9).
T2 sequence (A0A7T3N1B9 1-391): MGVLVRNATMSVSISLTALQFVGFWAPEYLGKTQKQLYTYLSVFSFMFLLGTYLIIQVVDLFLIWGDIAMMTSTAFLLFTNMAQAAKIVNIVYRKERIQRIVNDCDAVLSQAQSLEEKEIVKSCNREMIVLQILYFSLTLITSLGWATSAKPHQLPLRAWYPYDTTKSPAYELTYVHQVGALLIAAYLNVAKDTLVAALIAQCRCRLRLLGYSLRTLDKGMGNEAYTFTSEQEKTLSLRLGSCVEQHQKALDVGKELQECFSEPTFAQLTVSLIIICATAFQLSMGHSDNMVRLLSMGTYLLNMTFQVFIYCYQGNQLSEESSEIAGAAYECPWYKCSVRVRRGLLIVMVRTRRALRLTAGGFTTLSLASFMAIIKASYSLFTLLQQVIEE
In words: Xenopus oocyte two-electrode voltage clamp, HarmOR60 + Orco. It counts as cell-based. The method, then: as §1
as §3, with “CA). […]” for “CA).”

A further test deals with HarmOR29 (Helicoverpa armigera, UniProt A0A7T3KAG0). In words: Xenopus oocyte two-electrode voltage clamp, HarmOR29 + Orco. It counts as cell-based. The conditions noted are these: dose response in oocytes, unit M. As for the experimental part: as §1, §2
Another test deals with HarmOR25 (Helicoverpa armigera, UniProt A0A7T3KAG7). In words: Xenopus oocyte two-electrode voltage clamp, HarmOR25 + Orco. It counts as cell-based. The method, then:
as §1, §2

A further test has as its target T3, HarmOR43 (Helicoverpa armigera, UniProt A0A7T3KAF8).
T3 sequence (A0A7T3KAF8 1-415): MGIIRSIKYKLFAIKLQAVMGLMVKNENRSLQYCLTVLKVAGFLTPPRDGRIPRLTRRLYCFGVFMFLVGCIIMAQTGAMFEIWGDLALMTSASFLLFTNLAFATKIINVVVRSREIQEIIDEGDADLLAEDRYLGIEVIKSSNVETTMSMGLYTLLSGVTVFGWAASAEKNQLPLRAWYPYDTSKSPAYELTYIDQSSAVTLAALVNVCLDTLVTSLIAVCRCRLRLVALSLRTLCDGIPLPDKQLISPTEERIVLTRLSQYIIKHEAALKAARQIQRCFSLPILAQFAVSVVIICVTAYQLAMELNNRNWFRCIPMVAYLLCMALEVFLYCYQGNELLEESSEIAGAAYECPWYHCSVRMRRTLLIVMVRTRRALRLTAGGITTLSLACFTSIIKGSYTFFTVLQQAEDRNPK
In words: Xenopus oocyte two-electrode voltage clamp, HarmOR43 + Orco. The conditions noted are these: dose response in oocytes, unit M. It counts as cell-based. The method, then: as §1
as §3, with “CA). […]” for “CA).”

For the next test, the target named is HarmOR8 (Helicoverpa armigera, UniProt A0A7T3N2E2). In words: Xenopus oocyte two-electrode voltage clamp, HarmOR8 + Orco. It counts as cell-based. The conditions noted are these: dose response in oocytes, unit M. The method, then:
as §1, §2

In the next test the target is HarmOR31 (Helicoverpa armigera, UniProt A0A7T3N2E9). The test is described as follows: Xenopus oocyte two-electrode voltage clamp, HarmOR31 + Orco. It counts as cell-based.
Source text: In order to expand our analysis on the response properties of HarmORs, we conducted dose–response analyses for the 28 functional HarmORs. […] Many of these terpenes have been proposed to be defensive chemicals of plants.
Briefly, the full-length gene of each OR and Orco were subcloned into the eukaryotic expression vector pT7TS. cRNAs were generated from linearized expression vectors using the mMESSAGE mMACHINE T7 kit (Ambion, Austin, TX). […] The respective Orcos of different species were used for functional studies of OR42 orthologs except for the four butterfly species (V. tameamea, P. xuthus, D. plexippus, and P. rapae), in which we used the Orco from P. xuthus.
as §4

Read-outs that look alike come from different tables or passages of the source.

For orientation: EC50 means the concentration giving half of the maximal effect.

HarmOR63, sequence (A0A7T3N0P9 1-407): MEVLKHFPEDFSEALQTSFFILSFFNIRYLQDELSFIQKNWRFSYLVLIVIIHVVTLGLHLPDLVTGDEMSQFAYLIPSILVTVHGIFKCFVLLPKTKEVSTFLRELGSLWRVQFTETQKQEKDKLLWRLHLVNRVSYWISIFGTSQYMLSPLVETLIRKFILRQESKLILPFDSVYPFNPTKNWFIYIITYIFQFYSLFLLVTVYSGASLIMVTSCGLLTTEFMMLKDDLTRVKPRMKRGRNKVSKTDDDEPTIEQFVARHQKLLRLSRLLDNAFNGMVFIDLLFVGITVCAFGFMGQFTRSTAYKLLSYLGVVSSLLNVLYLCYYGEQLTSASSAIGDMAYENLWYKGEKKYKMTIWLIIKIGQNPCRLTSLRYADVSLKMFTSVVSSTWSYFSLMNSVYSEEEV
HarmOR29, sequence (A0A7T3KAG0 1-395): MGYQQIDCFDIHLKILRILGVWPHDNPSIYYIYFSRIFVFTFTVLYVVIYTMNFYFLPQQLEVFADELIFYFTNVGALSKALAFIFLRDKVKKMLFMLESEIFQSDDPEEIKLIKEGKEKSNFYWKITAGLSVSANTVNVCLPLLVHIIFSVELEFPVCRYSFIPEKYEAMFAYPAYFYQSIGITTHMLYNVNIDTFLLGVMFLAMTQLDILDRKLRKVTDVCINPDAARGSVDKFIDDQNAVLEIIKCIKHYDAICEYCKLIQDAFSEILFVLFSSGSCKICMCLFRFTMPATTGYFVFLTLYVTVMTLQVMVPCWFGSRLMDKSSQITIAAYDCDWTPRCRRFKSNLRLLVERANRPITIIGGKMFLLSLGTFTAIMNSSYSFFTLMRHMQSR
HarmOR7, sequence (A0A7T3KAD7 1-411): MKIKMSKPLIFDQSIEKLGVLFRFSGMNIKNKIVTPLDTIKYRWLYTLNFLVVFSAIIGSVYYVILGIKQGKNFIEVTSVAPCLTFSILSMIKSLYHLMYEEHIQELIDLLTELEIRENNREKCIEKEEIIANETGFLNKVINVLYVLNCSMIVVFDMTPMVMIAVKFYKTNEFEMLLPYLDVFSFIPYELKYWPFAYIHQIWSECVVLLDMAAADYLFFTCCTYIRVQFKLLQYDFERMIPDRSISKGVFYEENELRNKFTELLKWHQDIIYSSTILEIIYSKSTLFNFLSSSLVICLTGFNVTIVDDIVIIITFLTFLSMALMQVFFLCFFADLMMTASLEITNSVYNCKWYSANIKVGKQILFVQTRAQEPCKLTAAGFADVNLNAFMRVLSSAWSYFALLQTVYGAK
HarmOR25, sequence (A0A7T3KAG7 1-398): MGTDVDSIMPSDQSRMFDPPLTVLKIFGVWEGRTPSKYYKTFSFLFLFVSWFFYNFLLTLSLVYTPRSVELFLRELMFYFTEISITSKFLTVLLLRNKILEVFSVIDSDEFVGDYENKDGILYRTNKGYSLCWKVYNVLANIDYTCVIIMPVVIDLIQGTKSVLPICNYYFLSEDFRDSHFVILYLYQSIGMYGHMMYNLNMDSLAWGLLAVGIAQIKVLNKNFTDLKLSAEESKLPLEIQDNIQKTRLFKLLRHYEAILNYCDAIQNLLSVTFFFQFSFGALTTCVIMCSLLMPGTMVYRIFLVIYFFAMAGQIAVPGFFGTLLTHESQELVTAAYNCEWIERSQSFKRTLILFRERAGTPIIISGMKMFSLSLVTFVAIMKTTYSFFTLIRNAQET
HarmOR35, sequence (A0A7T3N1A8 entry or part of it): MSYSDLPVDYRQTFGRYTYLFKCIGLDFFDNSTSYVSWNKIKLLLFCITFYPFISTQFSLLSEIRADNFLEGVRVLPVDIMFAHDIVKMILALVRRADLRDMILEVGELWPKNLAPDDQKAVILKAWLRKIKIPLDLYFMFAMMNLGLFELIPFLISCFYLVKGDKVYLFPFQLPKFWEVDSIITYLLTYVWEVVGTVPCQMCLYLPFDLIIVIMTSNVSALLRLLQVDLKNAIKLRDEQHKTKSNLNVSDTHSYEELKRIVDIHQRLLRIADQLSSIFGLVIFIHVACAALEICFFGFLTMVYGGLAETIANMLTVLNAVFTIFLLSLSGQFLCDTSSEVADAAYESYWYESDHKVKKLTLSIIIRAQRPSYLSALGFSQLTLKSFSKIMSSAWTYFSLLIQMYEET
HarmOR8, sequence (A0A7T3N2E2 1-406): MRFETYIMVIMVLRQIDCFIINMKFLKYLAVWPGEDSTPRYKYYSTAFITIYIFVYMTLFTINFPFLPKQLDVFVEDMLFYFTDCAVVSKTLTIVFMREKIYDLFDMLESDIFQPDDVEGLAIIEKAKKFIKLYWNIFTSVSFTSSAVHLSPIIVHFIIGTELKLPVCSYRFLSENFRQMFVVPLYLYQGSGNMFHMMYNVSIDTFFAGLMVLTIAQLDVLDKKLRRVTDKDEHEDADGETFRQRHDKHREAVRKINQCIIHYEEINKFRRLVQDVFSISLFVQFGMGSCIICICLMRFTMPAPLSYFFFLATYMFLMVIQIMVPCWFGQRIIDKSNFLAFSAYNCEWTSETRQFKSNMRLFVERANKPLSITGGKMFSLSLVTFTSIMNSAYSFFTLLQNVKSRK
HarmOR31, sequence (A0A7T3N2E9 entry or part of it): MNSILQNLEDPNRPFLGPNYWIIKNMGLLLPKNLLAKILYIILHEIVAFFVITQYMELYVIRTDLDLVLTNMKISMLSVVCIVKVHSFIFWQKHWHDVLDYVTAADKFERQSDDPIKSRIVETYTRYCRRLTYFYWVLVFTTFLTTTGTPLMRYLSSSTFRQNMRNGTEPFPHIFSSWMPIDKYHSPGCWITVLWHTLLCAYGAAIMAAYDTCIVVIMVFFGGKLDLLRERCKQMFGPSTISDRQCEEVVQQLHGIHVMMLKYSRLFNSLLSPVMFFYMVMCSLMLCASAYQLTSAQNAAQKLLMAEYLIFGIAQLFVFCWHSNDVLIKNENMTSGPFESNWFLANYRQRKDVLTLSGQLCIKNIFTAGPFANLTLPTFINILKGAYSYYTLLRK
HarmOR55, sequence (A0A7T3N2G6 entry or part of it): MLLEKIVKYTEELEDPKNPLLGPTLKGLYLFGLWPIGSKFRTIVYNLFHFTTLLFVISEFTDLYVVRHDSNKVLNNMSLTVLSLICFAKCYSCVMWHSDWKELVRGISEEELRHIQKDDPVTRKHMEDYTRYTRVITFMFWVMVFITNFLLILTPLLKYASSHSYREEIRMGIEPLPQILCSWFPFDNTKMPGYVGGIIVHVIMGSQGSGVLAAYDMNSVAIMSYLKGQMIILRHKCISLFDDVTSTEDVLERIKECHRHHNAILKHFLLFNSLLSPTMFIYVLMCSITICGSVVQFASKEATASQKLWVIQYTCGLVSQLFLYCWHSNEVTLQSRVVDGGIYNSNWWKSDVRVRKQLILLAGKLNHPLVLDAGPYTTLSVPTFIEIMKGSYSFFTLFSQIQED
HarmOR26, sequence (A0A075T633 1-408): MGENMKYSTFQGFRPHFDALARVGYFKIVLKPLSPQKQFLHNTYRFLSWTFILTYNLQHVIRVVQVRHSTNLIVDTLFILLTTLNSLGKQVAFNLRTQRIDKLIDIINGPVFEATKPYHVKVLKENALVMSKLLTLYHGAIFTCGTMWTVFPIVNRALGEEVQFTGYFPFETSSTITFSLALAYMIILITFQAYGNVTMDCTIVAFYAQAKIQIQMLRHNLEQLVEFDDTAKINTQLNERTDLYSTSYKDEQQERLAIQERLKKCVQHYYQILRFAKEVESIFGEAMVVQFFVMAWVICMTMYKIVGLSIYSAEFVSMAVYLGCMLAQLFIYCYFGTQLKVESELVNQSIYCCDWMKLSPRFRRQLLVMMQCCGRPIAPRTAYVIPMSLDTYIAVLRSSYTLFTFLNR

On to `CC1(C)[C@H]2CC=C(C=O)[C@@H]1C2` [(1R)-(-)-Myrtenal], for which, at HarmOR35 (HarmOR35, dose response in oocytes, unit M, read-out: EC50), the EC50 turned out to be 255 µM.
`C=C1CC[C@H]2O[C@]2(C)CC[C@@H]2[C@@H]1CC2(C)C` [(-)-Caryophyllene oxide]: at HarmOR63, the EC50 came out at 52.1 µM.
Still for that read-out and setting: next, `C=C1CC/C=C(\C)CC[C@@H]2[C@@H]1CC2(C)C` [(-)-trans-Caryophyllene]: 88.2 µM.
Consider `C=CC(C)(O)CC/C=C(\C)CCC=C(C)C` (stereo not shown) [(E)-Nerolidol], for which the EC50 on HarmOR26 is 0.0289 µM; at HarmOR40 it was 12.5 µM; at HarmOR55, 88.1 µM. For the same compound, in the test on HarmOR repertoire, the “response of the HarmOR repertoire” value is listed as “still responded”.
Turning to `CC(=O)OCc1ccccc1` [Benzyl acetate], the EC50 on HarmOR7 (HarmOR7, dose response in oocytes, unit M, read-out: EC50) worked out at 60.7 µM.
Consider `C=CCc1ccc(O)c(OC)c1` [Eugenol], for which the concentration for a half-maximal effect (EC50) at HarmOR60 (HarmOR60, dose response in oocytes, unit M) was determined as 1.72 µM; on HarmOR29, 18.9 µM; on HarmOR35 it was 42.5 µM; on HarmOR25 (HarmOR25, dose response in oocytes, unit M), 81.6 µM. In addition, the “main ligand of HarmOR60” value at HarmOR60 (clade B) is reported as “main ligand”. Further, the “main ligand of HarmOR25” value at HarmOR25 (clade E) is listed as “main ligand”.
`COC(=O)c1ccc(O)cc1` [Methyl 4-hydroxybenzoate]: the EC50 at HarmOR43 amounted to 19.6 µM; at HarmOR29, 178 µM.
In the case of `C=CCc1ccc(OC)c(OC)c1` [Methyl eugenol], the EC50 at HarmOR8 stood at 106 µM.
As for `COC(=O)Cc1ccccc1` [Methyl phenylacetate], the EC50 is 29.5 µM at HarmOR31 and 107 µM at HarmOR7.
